Measured values from patent US6413542B1, “Direct pour-on antiparasitic skin solution and methods for treating, preventing and controlling myasis” (Merial, priority 1996, dated 2002).

Key:
Boophilus microplus [1] = test: Example 4: efficacy over time of skin solutions on cattle re-infested with larvae for 13 weeks; format: in vivo; set-up: Efficacy index: scale not given here
Description: Study of efficacy over time.
Skin solutions according to the invention containing 0.25, 0.5 or 1% compound A where used in this example.
The composition of these solutions is the same as for the above examples.
The cattle were preinfested so as to have all of the stages of Boophilus microplus present (infestation with 5,000 larvae, 22 days, 15 days and 8 days before application of the skin solution).
After application of the skin solutions, the cattle are again infested with the larvae for 13 weeks, to determine the efficacy of the three concentrations.

Boophilus microplus [2] = test: Example 2: efficacy of pour-on skin solutions against Boophilus microplus on artificially infested cattle (tick counts); format: in vivo; settings: skin solution containing 1% compound A, 1 ml per 10 kg along the line of the back
Procedure: Study of the efficacy of skin solutions according to the invention containing, respectively, 0.25, 0.50 and 1% compound A to combat Boophilus microplus.
The study was performed on 16 young male castrated Herefords (weight ranging between 114 and 172 kg).
Three skin solutions according to Example 1 were prepared:
A placebo was prepared, which differed from the skin solutions according to the invention in that it contained no compound A.
In the studies, 1 ml of skin solution or of placebo were used per 10 kg of animal weight.
The dose volume was applied along the line of the animal's back, from the head to the base of the tail.
Between days-24 and -1, the animals were artificially infested on 11 occasions with 2,500 Boophilus microplus larvae. The aim of 24-day infestation is to ensure that all of the stages of Boophilus microplus are present on the animal (eggs, larvae, adults).
On day 0, the animals receive one of the skin solutions or the placebo.
Before the skin solutions or the placebo are applied, the number of ticks present on the various animals in the different groups are counted.
The blood-engorged female ticks which become detached are included in the count.

[3] = Solubility of compound A in the solvent acetyl tributyl citrate; format: physicochemical
Description: The solvent will be used in proportion with the concentration of the compound I and its solubility in this solvent.
It will be sought to have the lowest possible volume.

N#Cc1nn(-c2c(Cl)cc(C(F)(F)F)cc2Cl)c(N)c1[S+]([O-])C(F)(F)F (stereo not drawn) [compound A, 1-[2,6-Cl2 4-CF3phenyl]3-CN 4-[SO-CF3]5-NH2pyrazole]
Efficacy index (Boophilus microplus [1]; 0.25% solution, week 1 of infestation after treatment): 97.6
Efficacy index (Boophilus microplus [1]; 0.25% solution, week 2 of infestation after treatment): 98.8
Efficacy index (Boophilus microplus [1]; 0.25% solution, week 3 of infestation after treatment): 99.7
Efficacy index (Boophilus microplus [1]; 0.25% solution, week 4 of infestation after treatment): 99.3
Efficacy index (Boophilus microplus [1]; 0.25% solution, week 5 of infestation after treatment): 96.7
Efficacy index (Boophilus microplus [1]; 0.25% solution, week 6 of infestation after treatment): 98.6
Efficacy index (Boophilus microplus [1]; 0.25% solution, week 7 of infestation after treatment): 92.4
Efficacy index (Boophilus microplus [1]; 0.25% solution, week 8 of infestation after treatment): 85.8
Efficacy index (Boophilus microplus [1]; 0.25% solution, week 9 of infestation after treatment): 28.0
Efficacy index (Boophilus microplus [1]; 0.25% solution, week 10 of infestation after treatment): 23.0
Efficacy index (Boophilus microplus [1]; 0.25% solution, week 11 of infestation after treatment): 18.9
Efficacy index (Boophilus microplus [1]; 0.25% solution, week 12 of infestation after treatment): 1.7
Efficacy index (Boophilus microplus [1]; 0.25% solution, week 13 of infestation after treatment): 8.4
Efficacy index (Boophilus microplus [1]; 0.5% solution, week 1 of infestation after treatment): 100
Efficacy index (Boophilus microplus [1]; 0.5% solution, week 2 of infestation after treatment): 100
Efficacy index (Boophilus microplus [1]; 0.5% solution, week 3 of infestation after treatment): 100
Efficacy index (Boophilus microplus [1]; 0.5% solution, week 4 of infestation after treatment): 100
Efficacy index (Boophilus microplus [1]; 0.5% solution, week 5 of infestation after treatment): 92.9
Efficacy index (Boophilus microplus [1]; 0.5% solution, week 6 of infestation after treatment): 93.2
Efficacy index (Boophilus microplus [1]; 0.5% solution, week 7 of infestation after treatment): 88.6
Efficacy index (Boophilus microplus [1]; 0.5% solution, week 8 of infestation after treatment): 83.4
Efficacy index (Boophilus microplus [1]; 0.5% solution, week 9 of infestation after treatment): 37.9
Efficacy index (Boophilus microplus [1]; 0.5% solution, week 10 of infestation after treatment): 41.4
Efficacy index (Boophilus microplus [1]; 0.5% solution, week 11 of infestation after treatment): 55.2
Efficacy index (Boophilus microplus [1]; 0.5% solution, week 12 of infestation after treatment): 37.3
Efficacy index (Boophilus microplus [1]; 0.5% solution, week 13 of infestation after treatment): 48.5
Efficacy index (Boophilus microplus [1]; 1.0% solution, week 1 of infestation after treatment): 100
Efficacy index (Boophilus microplus [1]; 1.0% solution, week 2 of infestation after treatment): 100
Efficacy index (Boophilus microplus [1]; 1.0% solution, week 3 of infestation after treatment): 100
Efficacy index (Boophilus microplus [1]; 1.0% solution, week 4 of infestation after treatment): 100
Efficacy index (Boophilus microplus [1]; 1.0% solution, week 5 of infestation after treatment): 100
Efficacy index (Boophilus microplus [1]; 1.0% solution, week 6 of infestation after treatment): 100
Efficacy index (Boophilus microplus [1]; 1.0% solution, week 7 of infestation after treatment): 99.7
Efficacy index (Boophilus microplus [1]; 1.0% solution, week 8 of infestation after treatment): 100
Efficacy index (Boophilus microplus [1]; 1.0% solution, week 9 of infestation after treatment): 79.8
Efficacy index (Boophilus microplus [1]; 1.0% solution, week 10 of infestation after treatment): 65.3
Efficacy index (Boophilus microplus [1]; 1.0% solution, week 11 of infestation after treatment): 61.5
Efficacy index (Boophilus microplus [1]; 1.0% solution, week 12 of infestation after treatment): 32.2
Efficacy index (Boophilus microplus [1]; 1.0% solution, week 13 of infestation after treatment): 46.4
period of efficacy against Boophilus microplus (Boophilus microplus [1]; pour-on skin solutions, cattle): two
efficacy (Boophilus microplus [2]): 100%
solubility [3]: 4.3 % m/V
